Measured values as given in publication PMC4113009, “Dihydroisoxazole inhibitors of Anopheles gambiae seminal transglutaminase AgTG3” (Malaria Journal, 2014).
Read-outs that look alike come from different tables or passages of the source. Blank lines part the entries; values can stand above or below the compound they belong to.

Columns and labels:
AgTG3 [1] = target: T1, AgTG3 (Anopheles gambiae, UniProt D2K8K8); experiment: AgTG3 plugin cross-linking assay (SDS-PAGE, FITC-CAD); assay type: biochemical; conditions: for Inhibition of plugin-C cross-linking by AgTG3 (controls): 10 mM EDTA, 50 mM IA, 5 mM CaCl2
Description: Recombinant AgTG3 was pre-incubated with 100 μM inhibitors overnight at room temperature. AgTG3, with and without pretreatment with inhibitors (1 μg), was added to plugin-C (20 μg) and 0.5 mM FITC-cadaverine (FITC-CAD) in 25 mM HEPES, pH 7.5, 10 mM CaCl2, 1 mM DTT. The reaction was incubated at room temperature for 2 h and quenched by heat denaturation of the proteins in the presence of Laemmli buffer. The extent of cross-linking was analysed by sodium dodecyl sulphate-polyacrylamide gel electrophoresis (SDS-PAGE). The gel was scanned using Alpha Imager 2200 software.
Additional assays were performed to examine whether compounds 1 and 3 would inhibit the cross-linking of plugin-C by AgTG3 in solution, with FITC-CAD for fluorescent detection of plugin-C. Results were assessed by SDS/PAGE and UV illumination to detect FITC-CAD (Figure 7). […] In the presence of enzyme, substrate and calcium a ladder of fluorescent bands of increasing molecular weight (MW) is observed (lane 4), corresponding to cross-linked oligomers of plugin also labeled by FITC-CAD. […] However, the levels of AgTG3 in solution assays are higher in the cross-linking assay than the primary screen. The levels of plugin-C were also higher, which competes with slow-binding irreversible inhibitors such as 1 and 3 for the active site of AgTG3.
Figure 7 Inhibition of plugin cross-linking by DHI inhibitors. Fluorescent image of SDS-PAGE for FITC-cadaverine labeling and cross-linking of plugin by AgTG3. Lanes (1–4): (1) AgTG3, (2) Plugin-C, (3) AgTG3 and plugin-C, (4) AgTG3, plugin-C, and 5 mM CaCl2. Lanes (5–8): AgTG3, plugin-C, 5 mM CaCl2 and (5) 10 mM EDTA, (6) 50 mM IA, (7) 100 μM 1, (8) 100 μM 3. (below) Coomassie stain indicating relative levels of monomeric Plugin-C.

AgTG3 [2] = target: T1, AgTG3; experiment: biochemical; conditions: for Activity against AgTG3 in dose–response assay: up to 100 μM; for Inhibition of AgTG3 in primary screen: 100 μM, triplicate
Description: Plugin-C (25 μg/well) was incubated in black 96-well Ni-coated plates (Pierce 15342) for 2 h at room temperature or overnight at 4°C. Plates were washed three times with 200 μL of TBS and loaded with 0.5 μg of AgTG3 in 50 μL TBS buffer. DHI inhibitors were added for 1 h to block the enzyme, followed by 50 μL of 2× assay buffer (2× TBS, 20 mM CaCl2, 100 μM FITC-CAD, 2 mM DTT). Wells were incubated for 60 min at room temperature, washed three times with 200 μL of TBS, and filled to a final volume of 100 μL for fluorescence measurements in a microplate reader (Biotek Synergy 2). The z-score was calculated based on the mean and standard deviation of three replicates of inhibitor compared to a DMSO control, zi=x¯DMSO-x¯i/σDMSO+σi .
The targeted chemical library was screened for inhibition of AgTG3 at 100 μM in a FITC-CAD plate assay (Figure 3A), performed in triplicate as previously described. Hit-calling was based on >67% decrease in fluorescence compared to DMSO and z > 5. Seven compounds fulfilled these criteria in the primary assay.
To verify the results of this preliminary assay, dose–response curves in the range of 0.5–100 μM were determined for 27 structurally related compounds within the targeted library (Additional file 3: Table S2 and Additional file 4: Table S3). […] Selected stereoisomers present in the targeted library were compared in equivalent dose–response assays. Inhibition of AgTG3 was specific for the (S)-DHI isomer of 1 (Figure 4A), the (R) isomer (4) displaying no activity (IC50 > 100 μM).

[3] = tested on: model of human African trypanosomiasis; design: method as in PMID 21275056; conditions: cited from earlier work
[4] = design: method as in PMID 21275056; conditions: 50 mg/kg, intraperitoneal injection; cited from earlier work
tumor model = tested on: tumor model; design: method as in PMID 22996645; conditions: cited from earlier work
Drosophila = tested on: Drosophila; design: method as in PMID 22996645; conditions: delivered orally ad libitum, 10 μM in agar; cited from earlier work
human caspase-1 = target: T2, human caspase-1 (Homo sapiens, UniProt P29466); experiment: Cysteine protease inhibition assay, caspase-1 (Ac-YVAD-pNA); assay type: biochemical; conditions: 3 at 100 μM, compared to a DMSO control, chromogenic assay
T2 construct: purchased Abcam
T2 sequence (P29466 120-297 limits assumed): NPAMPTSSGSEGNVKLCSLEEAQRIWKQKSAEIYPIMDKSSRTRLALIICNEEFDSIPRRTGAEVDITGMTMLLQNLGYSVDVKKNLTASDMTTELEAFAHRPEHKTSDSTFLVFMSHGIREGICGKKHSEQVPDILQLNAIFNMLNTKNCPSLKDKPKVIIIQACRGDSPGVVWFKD
T2 sequence (P29466 317-404 limits assumed): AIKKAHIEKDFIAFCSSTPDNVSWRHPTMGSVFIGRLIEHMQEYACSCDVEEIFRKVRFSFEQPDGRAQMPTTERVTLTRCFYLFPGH
Description: The activity of caspase-1 was determined by use of chromogenic substrate Ac-YVAD-pNA (Enzo Life Sciences, NY, USA). The assay was performed by adding 45 μL of 1 Unit caspase-1 (Abcam, MA, USA) and 5 μL of Ac-YVAD-pNA (final concentration, 5 μM) to 50 μL assay buffer (50 mM HEPES pH 7.4, 10 mM DTT, 1 mM EDTA, 0.1% CHAPS, 20% glycerol). Substrate cleavage after 1 h incubation at 37°C was measured by […] absorbance at 400 nm in a benchtop UV/Vis spectrophotometer (UV1800, Shimadzu, Kyoto, Japan).
(§1) Transglutaminases and cysteine proteases have a similar catalytic mechanism involving an active site cysteine and formation of a thioacyl intermediate. […] To test this hypothesis, the inhibition of two cysteine proteases, human caspase-1 and recombinant tobacco etch virus (TEV) protease by 3 at 100 μM were tested using a chromogenic and SDS-PAGE assay, respectively (Figure 9). […] Neither human caspase-1 nor TEV are endogenous proteins in A. gambiae, which may well contain other endogenous targets of 1–3, not least the two other transglutaminases in the A. gambiae genome.

[5] = target: T3, recombinant tobacco etch virus (TEV) protease (Tobacco etch virus, UniProt P04517); experiment: Cysteine protease inhibition assay, TEV protease (GST-gp78 cleavage, SDS-PAGE); assay type: biochemical; conditions: 3 at 100 μM, compared to a DMSO control
T3 construct: recombinant tobacco etch virus (TEV) protease
Description: The activity of recombinant tobacco etch virus (TEV) protease was determined by cleavage of a fusion protein containing a TEV cleavage site between GST and a 17 kDa fragment of human gp78. TEV and GST-gp78 were incubated at 37°C for 10 min at a substrate:enzyme mass ratio of 10:1. The reaction was stopped by adding 3× loading buffer (150 mM Tris–HCl pH 6.8, 300 mM DTT, 6% (w/v) SDS, 0.06% (w/v) bromophenol blue, 30% (v/v) glycerol). Samples were heated at 95°C for 3 min and separated by 4–20% gradient SDS-PAGE.
as §1

hTG2 = conditions: cited from earlier work
[6] = dose–response curves in the range of 0.5–100 μM, FITC-CAD plate assay, read-out: IC50 for inhibition of AgTG3
[7] = dose–response, 27 dihydroisoxazole inhibitors, read-out: IC50 (Supplementary Table 3, AgTG3)

T1 sequence (D2K8K8 entry or part of it): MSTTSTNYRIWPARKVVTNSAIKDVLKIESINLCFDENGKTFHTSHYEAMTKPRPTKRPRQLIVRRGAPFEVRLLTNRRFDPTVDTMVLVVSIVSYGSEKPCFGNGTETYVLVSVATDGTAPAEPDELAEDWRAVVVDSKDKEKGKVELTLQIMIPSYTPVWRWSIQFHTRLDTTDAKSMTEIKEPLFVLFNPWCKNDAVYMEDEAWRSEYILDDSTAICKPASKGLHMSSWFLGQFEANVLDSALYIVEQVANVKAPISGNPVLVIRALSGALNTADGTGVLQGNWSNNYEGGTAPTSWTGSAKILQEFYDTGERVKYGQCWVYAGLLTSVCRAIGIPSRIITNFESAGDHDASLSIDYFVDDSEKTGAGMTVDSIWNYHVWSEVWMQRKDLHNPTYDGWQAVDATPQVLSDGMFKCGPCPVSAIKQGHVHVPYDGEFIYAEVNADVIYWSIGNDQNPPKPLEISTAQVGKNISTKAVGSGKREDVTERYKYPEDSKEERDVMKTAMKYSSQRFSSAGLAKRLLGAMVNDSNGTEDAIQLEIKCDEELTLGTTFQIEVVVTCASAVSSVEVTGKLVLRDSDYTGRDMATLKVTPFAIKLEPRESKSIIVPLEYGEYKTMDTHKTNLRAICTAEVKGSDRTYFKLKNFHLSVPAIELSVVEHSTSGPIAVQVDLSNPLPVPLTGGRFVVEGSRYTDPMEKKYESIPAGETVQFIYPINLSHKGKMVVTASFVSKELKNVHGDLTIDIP
T3 sequence (P04517 2038-2279): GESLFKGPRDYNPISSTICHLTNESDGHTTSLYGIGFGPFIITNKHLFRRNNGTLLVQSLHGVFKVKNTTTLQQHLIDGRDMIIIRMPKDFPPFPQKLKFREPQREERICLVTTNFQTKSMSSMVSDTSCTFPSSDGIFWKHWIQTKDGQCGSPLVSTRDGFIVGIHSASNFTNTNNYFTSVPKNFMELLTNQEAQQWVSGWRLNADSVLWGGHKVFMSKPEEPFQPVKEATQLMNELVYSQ

Structure (SMILES): O=C(N[C@@H](Cc1c[nH]c2ccc(F)cc12)C(=O)NC[C@@H]1CC(Br)=NO1)OCc1cnc2ccccc2c1
Inhibition of plugin-C cross-linking by AgTG3 (AgTG3 [1]; 100 μM inhibitor, 5 mM CaCl2, intensity of high MW bands): inhibited the cross-linking of plugin
IC50 (AgTG3 [2]; [6]): 3.1 µM

IC50 (AgTG3 [2]; [6]): 9.7 µM
Structure (SMILES): O=C(N[C@@H](Cc1c[nH]c2ccc(F)cc12)C(=O)NC[C@@H]1CC(Br)=NO1)OCc1cnc2ccccc2n1

IC50 (AgTG3 [2]; [6]): 12.2 µM
IC50 (AgTG3 [2]; [7]): 12 µM
Structure (SMILES): O=C(N[C@@H](Cc1c[nH]c2ccc(F)cc12)C(=O)NC[C@@H]1CC(Br)=NO1)OCc1ccnc2ccccc12

IC50 (AgTG3 [2]; [6]): 56 µM
Structure (SMILES): CC(C)(C)OC(=O)N[C@@H](Cc1c[nH]c2ccc(F)cc12)C(=O)NC[C@@H]1CC(Br)=NO1

IC50 (AgTG3 [2]; [6]): 4.3 µM
Structure (SMILES): O=C(N[C@@H](Cc1c[nH]c2ccc(O)cc12)C(=O)NC[C@@H]1CC(Br)=NO1)OCc1cnc2ccccc2c1

IC50 (AgTG3 [2]; [6]): > 100 µM
Structure (SMILES): O=C(N[C@@H](Cc1c[nH]c2ccc(F)cc12)C(=O)NC[C@H]1CC(Br)=NO1)OCc1cnc2ccccc2c1

IC50 (AgTG3 [2]; [7]): 18 µM
Structure (SMILES): O=C(N[C@@H](Cc1csc2ccccc12)C(=O)NC[C@@H]1CC(Br)=NO1)OCc1cnc2ccccc2c1

Structure (SMILES): N[C@H](C(=O)O)[C@@H]1CC(Br)=NO1 [3-bromoacivicin]
Activity in vivo in a model of human African trypanosomiasis [3]: active in vivo
Acute toxicity in mice [4]: no acute toxicity

Structure (SMILES): N[C@H](C(=O)O)[C@@H]1CC(Cl)=NO1 [Acivicin, acivicin]
Activity in vivo in a tumor model (tumor model): active in vivo
Toxicity to Drosophila (Drosophila): non-toxic

IC50 (AgTG3 [2]; [6]): 29 µM
Structure (SMILES): O=C(N[C@@H](Cc1ccccc1)C(=O)NC[C@@H]1CC(Br)=NO1)OCc1cnc2ccccc2c1 [Compound 5]

IC50 (AgTG3 [2]; [7]): > 100 µM
Activity against AgTG3 in dose–response assay (AgTG3 [2]): inactive
Structure (SMILES): O=C(N[C@H](Cc1ccccc1)C(=O)NC[C@@H]1CC(Br)=NO1)OCc1cnc2ccccc2c1 [Compound 6]

IC50 (AgTG3 [2]; [6]): ~30 µM
IC50 (AgTG3 [2]; [7]): 28 µM
Structure (SMILES): O=C(N[C@@H](Cc1ccccc1F)C(=O)NC[C@@H]1CC(Br)=NO1)OCc1cnc2ccccc2c1 [Compound 8]

IC50 (AgTG3 [2]; [7]): > 100 µM
Activity against AgTG3 in dose–response assay (AgTG3 [2]): inactive
Structure (SMILES): O=C(N[C@@H](Cc1ccc(I)cc1)C(=O)NC[C@@H]1CC(Br)=NO1)OCc1cnc2ccccc2c1 [Compound 11]

IC50 (AgTG3 [2]; [7]): > 100 µM
Structure (SMILES): O=C(N[C@@H](Cc1ccc(O)cc1)C(=O)NC[C@H]1CC(Br)=NO1)OCc1ccccc1 [Compound D26]

IC50 (AgTG3 [2]; [7]): > 100 µM
Structure (SMILES): O=C(N[C@@H](Cc1ccc(O)cc1)C(=O)NC[C@@H]1CC(Br)=NO1)OCc1ccccc1 [Compound D27]

IC50 (AgTG3 [2]; [7]): > 100 µM
Structure (SMILES): O=C(N[C@@H](Cc1ccc(O)cc1)C(=O)NC[C@H]1CC(Br)=NO1)OCc1cnc2ccccc2c1 [Compound D62]

Structure (SMILES): O=C(N[C@@H](Cc1ccc(O)cc1)C(=O)NC[C@H]1CC(Br)=NO1)OCC1c2ccccc2-c2ccccc21 [Compound D71]
IC50 (AgTG3 [2]; [7]): > 100 µM

Structure (SMILES): O=C(N[C@@H](Cc1ccc(O)cc1)C(=O)NC[C@@H]1CC(Br)=NO1)OCC1c2ccccc2-c2ccccc21 [Compound D73]
IC50 (AgTG3 [2]; [7]): > 100 µM

Structure (SMILES): CN(C(=O)OCc1cnc2ccccc2c1)[C@@H](Cc1ccccc1)C(=O)NC[C@@H]1CC(Br)=NO1 [Compound D83]
IC50 (AgTG3 [2]; [7]): > 100 µM

Structure (SMILES): O=C(N[C@@H](Cc1ccc(-c2ccccc2)cc1)C(=O)NC[C@@H]1CC(Br)=NO1)OCc1cnc2ccccc2c1 [Compound D84]
IC50 (AgTG3 [2]; [7]): > 100 µM

Structure (SMILES): O=C(N[C@@H](CCc1ccccc1)C(=O)NC[C@@H]1CC(Br)=NO1)OCc1cnc2ccccc2c1 [Compound D85]
IC50 (AgTG3 [2]; [7]): > 100 µM

Structure (SMILES): O=C(N[C@@H](Cc1cccc2ccccc12)C(=O)NC[C@@H]1CC(Br)=NO1)OCc1cnc2ccccc2c1 [Compound D86]
IC50 (AgTG3 [2]; [7]): > 100 µM

Structure (SMILES): C[C@@](Cc1ccccc1)(NC(=O)OCc1cnc2ccccc2c1)C(=O)NC[C@@H]1CC(Br)=NO1 [Compound D91]
IC50 (AgTG3 [2]; [7]): > 100 µM

Structure (SMILES): C[C@@H](c1ccccc1)[C@H](NC(=O)OCc1cnc2ccccc2c1)C(=O)NC[C@@H]1CC(Br)=NO1 [Compound D94]
IC50 (AgTG3 [2]; [7]): 84 µM

Structure (SMILES): C#Cc1ccc(COC(=O)N[C@@H](Cc2ccc(O)cc2)C(=O)NC[C@@H]2CC(Br)=NO2)cc1 [Compound D142]
IC50 (AgTG3 [2]; [7]): > 100 µM

Structure (SMILES): [N-]=[N+]=Nc1ccc(COC(=O)N[C@@H](Cc2ccc(O)cc2)C(=O)NC[C@@H]2CC(Br)=NO2)cc1 [Compound D143]
IC50 (AgTG3 [2]; [7]): > 100 µM

Structure (SMILES): O=C(O)CN(CCN(CC(=O)O)CC(=O)O)CC(=O)O [EDTA, reference compound]
Inhibition of plugin-C cross-linking by AgTG3 (controls) (AgTG3 [1]): Cross-linking is inhibited

Structure (SMILES): NC(=O)CI [IA, iodoacetamide, reference compound]
Inhibition of plugin-C cross-linking by AgTG3 (controls) (AgTG3 [1]): Cross-linking is inhibited
Inhibition of caspase-1 (human caspase-1): potent inhibitor of the enzyme
Inhibition of TEV protease [5]: potent inhibitor of the enzyme

Structure (SMILES): NNC(=O)CSc1nc2scc(-c3ccccc3)c2c(=O)n1-c1ccccc1 [LDN-27219, reference compound]
Inhibition of AgTG3 in primary screen (AgTG3 [2]): neither the eight acylidene oxoindoles tested nor the thienopyrimidinone LDN-27219 inhibited AgTG3
Inhibition of AgTG3 in primary screen (AgTG3 [2]; listed as LD-217912): neither acylidene oxoindoles nor the thienopyrimidinone LD-217912 showed any inhibition
IC50 (hTG2): < 10 µM
